From PubChem BioAssay (NCI)
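Test compounds were applied to cells in 96-well plates for 48 hours at 5 doses. GI50 marks 50% less growth. TGI marks complete inhibition of growth.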

Experiments:
Test in all cases: growth of human tumour cells (NCI), 48 h
[1] = system: 786-0 renal
[2] = system: A498 renal
[3] = system: A549 NSCLC
[4] = system: ACHN renal
[5] = system: BT-549 breast
[6] = system: CAKI-1 renal
[7] = system: CCRF-CEM leukemia
[8] = system: COLO 205 colon
[9] = system: DU-145 prostate
[10] = system: EKVX NSCLC
[11] = system: HCC-2998 colon
[12] = system: HCT-116 colon
[13] = system: HCT-15 colon
[14] = system: HL-60(TB) leukemia
[15] = system: HOP-62 NSCLC
[16] = system: HOP-92 NSCLC
[17] = system: HS 578T breast
[18] = system: HT29 colon
[19] = system: IGROV1 ovarian
[20] = system: K-562 leukemia
[21] = system: KM12 colon
[22] = system: LOX IMVI melanoma
[23] = system: M14 melanoma
[24] = system: MALME-3M melanoma
[25] = system: MCF7 breast
[26] = system: MDA-MB-231 breast
[27] = system: MDA-MB-435
[28] = system: MOLT-4 leukemia
[29] = system: NCI-H226 lung
[30] = system: NCI-H23 lung
[31] = system: NCI-H460 lung
[32] = system: NCI-H522 lung
[33] = system: NCI/ADR-RES ovarian
[34] = system: OVCAR-3 ovarian
[35] = system: OVCAR-4 ovarian
[36] = system: OVCAR-5 ovarian
[37] = system: OVCAR-8 ovarian
[38] = system: PC-3 prostate
[39] = system: RPMI-8226 leukemia
[40] = system: RXF 393 renal
[41] = system: SF-268 CNS
[42] = system: SF-295 CNS
[43] = system: SF-539 CNS
[44] = system: SK-MEL-2 melanoma
[45] = system: SK-MEL-28 melanoma
[46] = system: SK-MEL-5 melanoma
[47] = system: SK-OV-3 ovarian
[48] = system: SN12C renal
[49] = system: SNB-19 CNS
[50] = system: SNB-75 CNS
[51] = system: SR leukemia
[52] = system: SW-620 colon
[53] = system: T-47D breast
[54] = system: TK-10 renal
[55] = system: U251 CNS
[56] = system: UACC-257 melanoma
[57] = system: UACC-62 melanoma
[58] = system: UO-31 renal

Question: With C#CCNCCCN1C(=O)c2ccc3c4c(ccc(c24)C1=O)C(=O)N(CCCNCC#C)C3=O as the compound, how does the GI50 [1] read?
Answer: The GI50 was 778 nM.

Question: And the TGI [1]?
Answer: The TGI was 5360 nM.

Question: And the GI50 [2]?
Answer: The GI50 was 312 nM.

Question: What about the TGI [2] of the same compound?
Answer: The TGI was 1410 nM.

Question: And the GI50 [3]?
Answer: The GI50 was 134 nM.

Question: What about the TGI [3] of the same compound?
Answer: Its TGI is 393 nM.

Question: What about the GI50 [4] of the same compound?
Answer: Its GI50 is 144 nM.

Question: What about the TGI [4] of the same compound?
Answer: The TGI was 1740 nM.

Question: What about the GI50 [5] of the same compound?
Answer: Its GI50 is 1440 nM.

Question: And the TGI [5]?
Answer: The TGI was 2890 nM.

Question: What about the GI50 [6] of the same compound?
Answer: Its GI50 is 237 nM.

Question: What about the TGI [6] of the same compound?
Answer: The TGI was 955 nM.

Question: And the GI50 [7]?
Answer: The GI50 was 295 nM.

Question: And the TGI [7]?
Answer: Its TGI is 2890 nM.

Question: And the GI50 [8]?
Answer: The GI50 was 91.1 nM.

Question: What about the TGI [8] of the same compound?
Answer: The TGI was 238 nM.

Question: And the GI50 [9]?
Answer: The GI50 was 219 nM.

Question: What about the TGI [9] of the same compound?
Answer: Its TGI is 600 nM.

Question: What about the GI50 [10] of the same compound?
Answer: Its GI50 is 302 nM.

Question: What about the TGI [10] of the same compound?
Answer: The TGI was 1130 nM.

Question: And the GI50 [11]?
Answer: The GI50 was 242 nM.

Question: What about the TGI [11] of the same compound?
Answer: Its TGI is 766 nM.

Question: And the GI50 [12]?
Answer: The GI50 was 157 nM.

Question: What about the TGI [12] of the same compound?
Answer: Its TGI is 1950 nM.

Question: What about the GI50 [13] of the same compound?
Answer: Its GI50 is 206 nM.

Question: What about the TGI [13] of the same compound?
Answer: The TGI was 809 nM.

Question: What about the GI50 [14] of the same compound?
Answer: Its GI50 is 305 nM.

Question: What about the TGI [14] of the same compound?
Answer: Its TGI is 988 nM.

Question: What about the GI50 [15] of the same compound?
Answer: Its GI50 is 267 nM.

Question: And the TGI [15]?
Answer: Its TGI is 1560 nM.

Question: And the GI50 [16]?
Answer: The GI50 was 1790 nM.

Question: What about the TGI [16] of the same compound?
Answer: The TGI was 7740 nM.

Question: What about the GI50 [17] of the same compound?
Answer: The GI50 was 919 nM.

Question: And the TGI [17]?
Answer: The TGI was 4760 nM.

Question: And the GI50 [18]?
Answer: Its GI50 is 76.6 nM.

Question: What about the TGI [18] of the same compound?
Answer: Its TGI is 539 nM.

Question: What about the GI50 [19] of the same compound?
Answer: The GI50 was 187 nM.

Question: And the TGI [19]?
Answer: Its TGI is 972 nM.

Question: What about the GI50 [20] of the same compound?
Answer: Its GI50 is 230 nM.

Question: And the TGI [20]?
Answer: Its TGI is 1630 nM.

Question: What about the GI50 [21] of the same compound?
Answer: The GI50 was 284 nM.

Question: What about the TGI [21] of the same compound?
Answer: The TGI was 1330 nM.

Question: And the GI50 [22]?
Answer: The GI50 was 205 nM.

Question: What about the TGI [22] of the same compound?
Answer: Its TGI is 637 nM.

Question: What about the GI50 [23] of the same compound?
Answer: The GI50 was 317 nM.

Question: What about the TGI [23] of the same compound?
Answer: The TGI was 987 nM.

Question: What about the GI50 [24] of the same compound?
Answer: The GI50 was 158 nM.

Question: What about the TGI [24] of the same compound?
Answer: The TGI was 373 nM.

Question: And the GI50 [25]?
Answer: Its GI50 is 132 nM.

Question: What about the TGI [25] of the same compound?
Answer: Its TGI is 328 nM.

Question: And the GI50 [26]?
Answer: Its GI50 is 670 nM.

Question: What about the TGI [26] of the same compound?
Answer: Its TGI is 5920 nM.

Question: And the GI50 [27]?
Answer: The GI50 was 189 nM.

Question: What about the TGI [27] of the same compound?
Answer: Its TGI is 404 nM.

Question: What about the GI50 [28] of the same compound?
Answer: The GI50 was 188 nM.

Question: What about the TGI [28] of the same compound?
Answer: Its TGI is 869 nM.

Question: What about the GI50 [29] of the same compound?
Answer: Its GI50 is 151 nM.

Question: What about the TGI [29] of the same compound?
Answer: Its TGI is 551 nM.

Question: What about the GI50 [30] of the same compound?
Answer: The GI50 was 220 nM.

Question: What about the TGI [30] of the same compound?
Answer: Its TGI is 669 nM.

Question: What about the GI50 [31] of the same compound?
Answer: The GI50 was 101 nM.

Question: What about the TGI [31] of the same compound?
Answer: The TGI was 363 nM.

Question: And the GI50 [32]?
Answer: Its GI50 is 251 nM.

Question: What about the TGI [32] of the same compound?
Answer: The TGI was 841 nM.

Question: What about the GI50 [33] of the same compound?
Answer: Its GI50 is 467 nM.

Question: What about the TGI [33] of the same compound?
Answer: The TGI was 3810 nM.

Question: What about the GI50 [34] of the same compound?
Answer: Its GI50 is 277 nM.

Question: And the TGI [34]?
Answer: Its TGI is 957 nM.

Question: And the GI50 [35]?
Answer: The GI50 was 137 nM.

Question: What about the TGI [35] of the same compound?
Answer: Its TGI is 279 nM.

Question: What about the GI50 [36] of the same compound?
Answer: The GI50 was 534 nM.

Question: What about the TGI [36] of the same compound?
Answer: The TGI was 2610 nM.

Question: What about the GI50 [37] of the same compound?
Answer: Its GI50 is 180 nM.

Question: And the TGI [37]?
Answer: The TGI was 1550 nM.

Question: And the GI50 [38]?
Answer: Its GI50 is 463 nM.

Question: What about the TGI [38] of the same compound?
Answer: The TGI was 4410 nM.

Question: What about the GI50 [39] of the same compound?
Answer: The GI50 was 404 nM.

Question: What about the TGI [39] of the same compound?
Answer: The TGI was 4180 nM.

Question: What about the GI50 [40] of the same compound?
Answer: The GI50 was 228 nM.

Question: And the TGI [40]?
Answer: The TGI was 1070 nM.

Question: What about the GI50 [41] of the same compound?
Answer: Its GI50 is 404 nM.

Question: And the TGI [41]?
Answer: Its TGI is 3050 nM.

Question: What about the GI50 [42] of the same compound?
Answer: Its GI50 is 119 nM.

Question: What about the TGI [42] of the same compound?
Answer: Its TGI is 514 nM.

Question: What about the GI50 [43] of the same compound?
Answer: The GI50 was 470 nM.

Question: And the TGI [43]?
Answer: The TGI was 1750 nM.

Question: What about the GI50 [44] of the same compound?
Answer: Its GI50 is 244 nM.

Question: What about the TGI [44] of the same compound?
Answer: Its TGI is 729 nM.

Question: And the GI50 [45]?
Answer: The GI50 was 613 nM.

Question: What about the TGI [45] of the same compound?
Answer: The TGI was 2160 nM.

Question: And the GI50 [46]?
Answer: The GI50 was 140 nM.

Question: And the TGI [46]?
Answer: Its TGI is 274 nM.

Question: And the GI50 [47]?
Answer: The GI50 was 645 nM.

Question: What about the TGI [47] of the same compound?
Answer: The TGI was 4320 nM.

Question: What about the GI50 [48] of the same compound?
Answer: Its GI50 is 214 nM.

Question: And the TGI [48]?
Answer: Its TGI is 949 nM.

Question: And the GI50 [49]?
Answer: Its GI50 is 328 nM.

Question: What about the TGI [49] of the same compound?
Answer: Its TGI is 1450 nM.

Question: And the GI50 [50]?
Answer: The GI50 was 451 nM.

Question: And the TGI [50]?
Answer: Its TGI is 1690 nM.

Question: What about the GI50 [51] of the same compound?
Answer: The GI50 was 219 nM.

Question: What about the TGI [51] of the same compound?
Answer: The TGI was 1040 nM.

Question: And the GI50 [52]?
Answer: The GI50 was 154 nM.

Question: And the TGI [52]?
Answer: The TGI was 992 nM.

Question: What about the GI50 [53] of the same compound?
Answer: Its GI50 is 1020 nM.

Question: And the TGI [53]?
Answer: Its TGI is 3900 nM.

Question: And the GI50 [54]?
Answer: The GI50 was 689 nM.

Question: And the TGI [54]?
Answer: The TGI was 6880 nM.

Question: And the GI50 [55]?
Answer: Its GI50 is 223 nM.

Question: And the TGI [55]?
Answer: The TGI was 1020 nM.

Question: What about the GI50 [56] of the same compound?
Answer: The GI50 was 181 nM.

Question: What about the TGI [56] of the same compound?
Answer: The TGI was 342 nM.

Question: What about the GI50 [57] of the same compound?
Answer: Its GI50 is 384 nM.

Question: And the TGI [57]?
Answer: Its TGI is 1070 nM.

Question: What about the GI50 [58] of the same compound?
Answer: The GI50 was 260 nM.

Question: What about the TGI [58] of the same compound?
Answer: The TGI was 1380 nM.
